From patent US6040305A, “Compounds useful for inhibition of farnesyl protein transferase” (Schering Corporation, priority 1997, dated 2000)
Read-outs that look alike come from different tables or passages of the source.

Assays:
[1] = molecular target: T1, farnesyl protein transferase (Homo sapiens, UniProt P49354+P49356); test: FPT IC50, inhibition of farnesyl protein transferase, in vitro enzyme assay (H-ras); assay type: biochemical
Protocol: (§1) FPT IC50 (inhibition of farnesyl protein transferase, in vitro enzyme assay) and COS Cell IC50 (Cell-Based Assay) were determined following the assay procedures described in WO 95110516, published Apr. 20, 1995. GGPT IC50 (inhibition of geranylgeranyl protein transferase, in vitro enzyme assay), Cell Mat Assay, and anti-tumor activity (in vivo anti-tumor studies) could be determined by the assay procedures described in WO 95/10516. The disclosure of WO 95/10516 is incorporated herein by reference thereto.

[2] = molecular target: T1, farnesyl protein transferase; test: FPT IC50, inhibition of farnesyl protein transferase (K-ras); assay type: biochemical
Protocol: as §1

[3] = tested on: COS Cell; test: COS Cell IC50 (Cell-Based Assay)
Protocol: as §1

[4] = tested on: Human tumor cells; test: Soft Agar Assay (anchorage-independent growth); assay type: cell-based; conditions: 10-16 days at 37° C., 5% CO2, MTT staining, read-out: Soft Agar FPT IC50
Protocol: Anchorage-independent growth is a characteristic of tumorigenic cell lines. Human tumor cells are suspended in growth medium containing 0.3% agarose and an indicated concentration of a farnesyl transferase inhibitor. The solution is overlayed onto growth medium solidified with 0.6% agarose containing the same concentration of farnesyl transferase inhibitor as the top layer. After the top layer is solidified, plates are incubated for 10-16 days at 37° C. under 5% CO2 to allow colony outgrowth. After incubation, the colonies are stained by overlaying the agar with a solution of MTT (3-[4,5-dimethyl-thiazol-2-yl]-2,5-diphenyltetrazolium bromide, Thiazolyl blue) (1 mg/mL in PBS). Colonies can be counted and the IC50 's can be determined.

| Structure (SMILES) | IC50 [1] | IC50 [2] | IC50 [3] | IC50 [4] | IC50 ([4]; value given in M) |
| --- | --- | --- | --- | --- | --- |
| CC(C)(C)OC(=O)CN1CCC(CC(=O)N2CCC([C@H]3c4ncc(Br)cc4CCc4cc(Cl)cc(Br)c43)CC2)CC1 [Compound 11.0] | 28 nM |  |  |  |  |
| NC(=O)CN1CCC(CC(=O)N2CCC([C@H]3c4ncc(Br)cc4CCc4cc(Cl)cc(Br)c43)CC2)CC1 [Compound 2.0] | 1.8 nM | 8.6 nM | 6 nM | 70 nM |  |
| O=C(CC1CCN(CC(=O)N2CCc3ccccc32)CC1)N1CCC([C@H]2c3ncc(Br)cc3CCc3cc(Cl)cc(Br)c32)CC1 [Compound 10.0] | 5.4 nM |  | 100 nM |  |  |
| CON(C)C(=O)CN1CCC(CC(=O)N2CCC([C@H]3c4ncc(Br)cc4CCc4cc(Cl)cc(Br)c43)CC2)CC1 [Compound 3.0] | 3.9 nM | 26 nM | 20 nM | 175 nM |  |
| O=C(CN1CCC(CC(=O)N2CCC([C@H]3c4ncc(Br)cc4CCc4cc(Cl)cc(Br)c43)CC2)CC1)NCc1ccccc1 [Compound 5.0] | 16 nM | 51.9 nM | 840 nM |  |  |
| O=C(CC1CCN(CC(O)CO)CC1)N1CCC([C@H]2c3ncc(Br)cc3CCc3cc(Cl)cc(Br)c32)CC1 (stereo partly shown) [Compound 20.0] | 2 nM |  | < 10 nM | 60 nM |  |
| O=C(CC1CCN(CC(=O)N2CCNCC2)CC1)N1CCC([C@H]2c3ncc(Br)cc3CCc3cc(Cl)cc(Br)c32)CC1 [Compound 9.0] | 4.3 nM | 17 nM | 120 nM | 500 nM |  |
| CCN(CC)C(=O)CN1CCC(CC(=O)N2CCC([C@H]3c4ncc(Br)cc4CCc4cc(Cl)cc(Br)c43)CC2)CC1 [Compound 4.0] | 4.3 nM | 46 nM | 40 nM | 300 nM |  |
| O=C(CN1CCC(CC(=O)N2CCC([C@H]3c4ncc(Br)cc4CCc4cc(Cl)cc(Br)c43)CC2)CC1)N[C@@H]1O[C@H](CO)[C@H](O)[C@H](O)[C@H]1O [Compound 6.0] | 3.4 nM | 17 nM | 300 nM |  | > 500 nM |
| CC(C)(C)OC(=O)N1CCN(C(=O)CN2CCC(CC(=O)N3CCC([C@H]4c5ncc(Br)cc5CCc5cc(Cl)cc(Br)c54)CC3)CC2)CC1 [Compound 8.0] | 18 nM | 42 nM | 22 nM | > 500 nM |  |
| O=C(CC1CCN(CC(=O)N2CCOCC2)CC1)N1CCC([C@H]2c3ncc(Br)cc3CCc3cc(Cl)cc(Br)c32)CC1 [Compound 7.0] | 5 nM | 20 nM | 25 nM | 100 nM |  |
